Ends that are not written are not given here.
Experiments:
Type in all cases: cell-based
[1] = test system: Candida albicans ATCC 10231; settings: for minimum inhibition concentration: ATCC 10231, 2 h; for peptide concentration giving 75% inhibition of growth (value in parentheses): Mueller Hinton Broth, complete growth inhibition not achieved
Text: (§1) The bolisin analogues of the present invention were examined for their suitability as antibiotic therapeutical agents by means of various biological tests. Thus, the chemically synthesized peptides were examined for their antimicrobial effectiveness against three Gram-positive and three Gram-negative bacterial strains as well as against a yeast.
(§2) The following microorganisms were used: • Gram-positive: Staphylococcus aureus ATCC 25923 • Enterococcus faecalis ATCC 51299 (vancomycin-resistant) • Streptococcus pneumoniae DSM 11865 (penicillin-resistant) • Gram-negative: Escherichia coli ATCC 25922 • Pseudomonas aeruginosa ATCC 9027 • Klebsiella pneumoniae ATCC 10031 • Yeast: Candida albicans ATCC 10231
(§3) The antibiotic activity of bolisin analogues was examined by determining the minimum inhibition concentration. […] This method allows to obtain a quantitative result about the antimicrobial potency of the peptides. These examinations were performed by analogy with the recommendations (M7-A3) edited by the NCCLS (National Committee for Clinical Laboratory Standards) by applying a dilution test in a liquid medium using chemically synthesized peptides (peptide sequences according to claims 1 to 3). Mueller Hinton Broth was used as the test medium according to the NCCLS recommendations unless indicated otherwise. […] The minimum inhibition concentrations are stated in [μg/ml].
(§4) A complete growth inhibition could not be achieved in this case. For determining the minimum inhibition concentration, the following microorganisms were used: • 1. Staphylococcus aureus ATCC 25923 • 2. Enterococcus faecalis ATCC 51299 (vancomycin-resistant) • 3. Streptococcus pneumoniae DSM 11865 (penicillin-resistant) • 4. Escherichia coli ATCC 25922 • 5. Pseudomonas aeruginosa ATCC 9027 • 6. Klebsiella pneumoniae ATCC 10031 • 7. Candida albicans ATCC 10231

[2] = test system: Enterococcus faecalis ATCC 51299 (vancomycin-resistant); settings: ATCC 51299, 2 h
Text: as §1, §2, §3, §4

[3] = test system: Escherichia coli ATCC 25922; settings: ATCC 25922, 2 h
Text: as §1, §2, §3, §4

[4] = test system: Klebsiella pneumoniae ATCC 10031; settings: ATCC 10031, 2 h
Text: as §1, §2, §3, §4

[5] = test system: Staphylococcus aureus ATCC 25923; settings: ATCC 25923, 2 h
Text: as §1, §2, §3, §4

[6] = test system: Streptococcus pneumoniae DSM 11865 (penicillin-resistant); settings: DSM 11865, 2 h
Text: as §1, §2, §3, §4

[7] = test system: Pseudomonas aeruginosa ATCC 9027; settings: ATCC 9027, 2 h
[8] = test system: Pseudomonas aeruginosa ATCC 9027; settings: Mueller Hinton Broth; complete growth inhibition not achieved
Text: as §1, §2
(§5) The antibiotic activity of bolisin analogues was examined by determining the minimum inhibition concentration. The minimum inhibition concentration of an analogue designates the lowest peptide concentration which is required to inhibit the growth of microorganisms completely after an incubation time of 18±2 h. This method allows to obtain a quantitative result about the antimicrobial potency of the peptides. These examinations were performed by analogy with the recommendations (M7-A3) edited by the NCCLS (National Committee for Clinical Laboratory Standards) by applying a dilution test in a liquid medium using chemically synthesized peptides (peptide sequences according to claims 1 to 3). Mueller Hinton Broth was used as the test medium according to the NCCLS recommendations unless indicated otherwise. […] The minimum inhibition concentrations are stated in [μg/ml].
as §4

[9] = test system: Klebsiella pneumoniae ATCC 10031; settings: Tryptic Soy Broth (3 g/l) with 150 mM sodium chloride; complete growth inhibition not achieved
Experimental: as §5, §4
(§6) Also for these examinations, the minimum inhibition concentration of the peptides against Gram-positive and Gram-negative microorganisms (microorganisms 1-6) was determined. Tryptic Soy Broth (3 g/l) with an addition of salt in physiological concentration (150 mM sodium chloride) was used as the test medium.
(§7) A complete growth inhibition could not be achieved in this case.

[10] = test system: Staphylococcus aureus ATCC 25923; settings: Tryptic Soy Broth (3 g/l) with 150 mM sodium chloride; complete growth inhibition not achieved
Experimental: as §5, §4, §6, §7

[11] = test system: Streptococcus pneumoniae DSM 11865 (penicillin-resistant); settings: Tryptic Soy Broth (3 g/l) with 150 mM sodium chloride; complete growth inhibition not achieved
Experimental: as §5, §4, §6, §7

[12] = test system: Enterococcus faecalis ATCC 51299 (vancomycin-resistant); settings: Tryptic Soy Broth (3 g/l) with 150 mM sodium chloride; complete growth inhibition not achieved
Experimental: as §5, §4, §6, §7

Substance | minimum inhibition concentration [1] [mg/L] | minimum inhibition concentration [2] [mg/L] | minimum inhibition concentration [3] [mg/L] | minimum inhibition concentration [4] [mg/L] | minimum inhibition concentration [5] [mg/L] | minimum inhibition concentration [6] [mg/L] | minimum inhibition concentration [7] [mg/L] | peptide concentration giving 75% inhibition of growth (value in parentheses) [8] | peptide concentration giving 75% inhibition of growth (value in parentheses) [9] | peptide concentration giving 75% inhibition of growth (value in parentheses) [1] | peptide concentration giving 75% inhibition of growth (value in parentheses) [10] | peptide concentration giving 75% inhibition of growth (value in parentheses) [11] | peptide concentration giving 75% inhibition of growth (value in parentheses) [12]
YIVYKIRSADKRSKALK-OH [Bolisin] | >300 | >300 | >300 | >300 | >300 | >300 | >300 |  |  |  |  |  | 
YIVYKIRRAWKRRKALK-OH [BOL-54, YIVYKIRRAWKRRKALK] | 18.75 | 100 | 100 | 18.75 | 200 | 75 |  | (25) μg/ml | (200) μg/ml |  |  |  | 
YIVYKIRWARKRWKALK-OH [BOL-51, YIVYKIRWARKRWKALK] |  | 25 | 50 | 18.75 | 37.5 | 12.5 | 300 | 25 µg/mL |  | (18.75) μg/ml |  |  | 
YIVWKIRSARKRWKALK-OH [BOL-81, YIVWKIRSARKRWKALK] | 75 | 150 | 300 | 25 | 300 | 75 |  | (18.75) μg/ml |  |  | (300) μg/ml | (75) μg/ml | 
YIVRKIRSARKRRKALK-OH [BOL-83, YIVRKIRSARKRRKALK] | 300 | >300 | >300 | >300 | >300 | >300 | >300 |  |  |  |  |  | 
YIRYKIRSARKRRKALK-OH [BOL-17, YIRYKIRSARKRRKALK] |  | 200 | 37.5 | 9.375 | 37.5 | 300 | 200 |  |  |  |  |  | 
YIVYKIRRARKRRKALK-OH [BOL-52, YIVYKIRRARKRRKALK] |  | 200 | >300 | 75 | 300 | 200 |  | (37.5) μg/ml | (300) μg/ml | (37.5) μg/ml |  |  | 
YIVYKIRSARKRWK-OH [BOL-71, YIVYKIRSARKRWK] | 300 | 200 | 300 | 300 | 200 | 300 |  | (200) μg/ml |  |  |  |  | (300) μg/ml
YIVYKIRSAWKRRKALK-OH [BOL-44, YIVYKIRSAWKRRKALK] | 37.5 | >300 | 200 | 75 | 150 | 200 |  | (75) μg/ml |  |  |  |  | (300) μg/ml
YIVYKIRWAWKRRKALK-OH [BOL-48, YIVYKIRWAWKRRKALK] | 9.375 | 12.5 | 18.75 | 4.7 | 9.375 | 9.375 | 200 | 6.5 µg/mL |  |  |  |  | 
KYIVYKIRSAWKRRKALK-OH [BOL-86, KYIVYKIRSAWKRRKALK] | 18.75 | 200 | 150 | 50 | 75 | 150 |  | (18.75) μg/ml |  |  | (300) μg/ml | (300) μg/ml | 
YIRYKRRSARKRRKALK-OH [BOL-18, YIRYKRRSARKRRKALK] |  | >300 | 18.75 | 37.5 | 18.75 | >300 | 300 |  |  |  |  |  | 
YIVYKIRWAWKRKKALK-OH [BOL-61, YIVYKIRWAWKRKKALK] | 9.375 | 25 | 25 | 18.75 | 37.5 | 25 | 300 | 75 µg/mL |  |  |  |  | 
KYIVYKIRSARKRRKALK-OH [BOL-84, KYIVYKIRSARKRRKALK] | 37.5 | >300 | >300 | 75 | >300 | 300 |  | (75) μg/ml |  |  |  |  | 
YIVYKIRRAWKRWKALK-OH [BOL-55, YIVYKIRRAWKRWKALK] | 9.375 | 50 | 12.5 | 3.125 | 12.5 | 37.5 |  | (9.375) μg/ml |  |  |  |  | 
